Read-outs that look alike come from different tables or passages of the source.
Experiments:
[1] = system: renovascular hypertensive rats; test: Effect on reducing blood pressure of renovascular hypertensive rats by single oral administration; assay type: in vivo, Wistar rats; conditions: for change in vivo at 1 mg/kg / inhibition in vivo at 1 mg/kg / change in vivo at 0.5 mg/kg / inhibition in vivo at 0.5 mg/kg / change in vivo at 2 mg/kg / inhibition in vivo at 2 mg/kg: Rattus norvegicus, single oral administration; for change in vivo at 1 mg/kg / change in vivo at 0.5 mg/kg / change in vivo at 2 mg/kg: RHR, read-out: Variations on heart rate; for inhibition in vivo at 1 mg/kg / inhibition in vivo at 0.5 mg/kg / inhibition in vivo at 2 mg/kg: two-kidney one-clip RHR, measured 1-10 h, read-out: Maximum blood pressure reduction; for blood pressure reduction at 24 hours after the administration: dose not stated
[2] = system: spontaneously hypertensive rats (SHR); test: Effect on reducing blood pressure of spontaneously hypertensive rats (SHR) by multiple oral administrations; assay type: in vivo; conditions: for inhibition in vivo at 0.5 mg/kg: 0.5 mg/kg oral once per day
normal rats = test: Effect on blood pressure of normal rats by single oral administration; assay type: in vivo, Wistar rats; conditions: Rattus norvegicus, po, single, normal rats; for inhibition in vivo at 1 mg/kg / inhibition in vivo at 0.5 mg/kg / inhibition in vivo at 2 mg/kg: 8 h, read-out: blood pressure reduction at 8 h after the administration; for inhibition in vivo at 1 mg/kg / change in vivo at 1 mg/kg: 1.0 mg/kg p.o.; for change in vivo at 1 mg/kg / change in vivo at 0.5 mg/kg / change in vivo at 2 mg/kg: read-out: variations on heart rate; for inhibition in vivo at 0.5 mg/kg / change in vivo at 0.5 mg/kg: 0.5 mg/kg p.o.; for inhibition in vivo at 2 mg/kg / change in vivo at 2 mg/kg: 2.0 mg/kg p.o.
[3] = Rattus norvegicus, 1.0 mg/kg oral once per day, SHR, 1 hour after the administration, read-out: Maximum blood pressure reduction, 1st-day administration
[4] = Rattus norvegicus, 1.0 mg/kg oral once per day, SHR, 1 hour after the administration, read-out: Maximum blood pressure reduction, 7th-day administration
[5] = Rattus norvegicus, 1.0 mg/kg oral once per day, SHR, 1 hour after the administration, read-out: Maximum blood pressure reduction, 14th-day administration
[6] = Rattus norvegicus, 1.0 mg/kg oral, SHR, read-out: Heart Rate (effect on reducing heart rate)
[7] = renal artery-ligated rat, result in words
[8] = Rattus norvegicus, SHR, 1 hour after the administration, read-out: Maximum blood pressure reduction, 1st-day administration
[9] = Rattus norvegicus, SHR, 1 hour after the administration, read-out: Maximum blood pressure reduction, 7th-day administration
[10] = Rattus norvegicus, SHR, 1 hour after the administration, read-out: Maximum blood pressure reduction, 14th-day administration
[11] = Rattus norvegicus, 2.0 mg/kg oral once per day, SHR, 1 hour after the administration, read-out: Maximum blood pressure reduction, 1st-day administration
[12] = Rattus norvegicus, 2.0 mg/kg oral once per day, SHR, 1 hour after the administration, read-out: Maximum blood pressure reduction, 7th-day administration
[13] = Rattus norvegicus, 2.0 mg/kg oral once per day, SHR, 1 hour after the administration, read-out: Maximum blood pressure reduction, 14th-day administration

Row | Structure (SMILES) | change in vivo at 1 mg/kg [1] | inhibition in vivo at 1 mg/kg [1] | inhibition in vivo at 1 mg/kg (normal rats) | change in vivo at 1 mg/kg (normal rats) | change in vivo at 0.5 mg/kg [1] | inhibition in vivo at 0.5 mg/kg [1] | change in vivo at 2 mg/kg [1] | inhibition in vivo at 2 mg/kg [1] | blood pressure reduction effect compared with Azilsartan medoxomil [1, 7] | inhibition in vivo at 0.5 mg/kg (normal rats) | inhibition in vivo at 2 mg/kg (normal rats) | change in vivo at 0.5 mg/kg (normal rats) | change in vivo at 2 mg/kg (normal rats) | also measured
1 | CCOc1nc2cccc(C(=O)OCc3oc(=O)oc3C)c2n1Cc1ccc(-c2ccccc2-c2noc(=O)[nH]2)cc1 [Azilsartan medoxomil, reference compound] | -7 ± 3% | 30 ± 3.8% | 6.4 ± 2.1% | -5 ± 2% |  |  |  |  |  |  |  |  |  | blood pressure reduction at 24 hours after the administration ([1]; renal artery-ligated rat): 20%; inhibition in vivo at 1 mg/kg [2, 3]: 32 ± 3.5%; inhibition in vivo at 1 mg/kg [2, 4]: 34 ± 2.8%; inhibition in vivo at 1 mg/kg [2, 5]: 36 ± 3.6%; inhibition in vivo at 1 mg/kg [2, 6]: 8 ± 3%
2 | CCOc1nc2cccc(C(=O)OC(C)OC(=O)OC(C)C)c2n1Cc1ccc(-c2ccccc2-c2noc(=O)[nH]2)cc1 (centres unmarked) [QR01003] | -3 ± 2% | 28 ± 2.9% | 5.4 ± 1.9% | 4% | 2% | 15 ± 1.8% | -5 ± 2% | 36 ± 4.3% | close to that of Azilsartan medoxomil | 5.6 ± 3.1% | 6.4 ± 3.4% | -2 ± 2% | -3 ± 4% | inhibition in vivo at 0.5 mg/kg [2, 8]: 18 ± 4.6%; inhibition in vivo at 0.5 mg/kg [2, 9]: 21 ± 6.3%; inhibition in vivo at 0.5 mg/kg [2, 10]: 17 ± 6.8%; inhibition in vivo at 1 mg/kg [2, 3]: 31 ± 6.8%; inhibition in vivo at 1 mg/kg [2, 4]: 35 ± 7.3%; inhibition in vivo at 1 mg/kg [2, 5]: 36 ± 8.1%; inhibition in vivo at 2 mg/kg [2, 11]: 39 ± 5%; inhibition in vivo at 2 mg/kg [2, 12]: 41 ± 5.7%; inhibition in vivo at 2 mg/kg [2, 13]: 44 ± 6.1%
3 | CCOc1nc2cccc(C(=O)OCOC(=O)C(C)(C)C)c2n1Cc1ccc(-c2ccccc2-c2noc(=O)[nH]2)cc1 [QR01005] | -21 ± 6% | 36 ± 3.1% | 3.6 ± 2.1% | -6 ± 6% | -10 ± 3% | 16 ± 3.2% | -25 ± 6% | 43 ± 3.5% | obviously superior to that of the Azilsartan medoxomil positive drug | 6.3 ± 1.3% | 4.8 ± 2.3% | -3 ± 1% | 8% | blood pressure reduction at 24 hours after the administration ([1]; renal artery-ligated rat): 21%; lasting time of the blood pressure reduction effect compared with Azilsartan medoxomil [1, 7]: close to that of Azilsartan medoxomil; inhibition in vivo at 0.5 mg/kg [2, 8]: 16 ± 4.8%; inhibition in vivo at 0.5 mg/kg [2, 9]: 18 ± 5.2%; inhibition in vivo at 0.5 mg/kg [2, 10]: 21 ± 3.9%; inhibition in vivo at 1 mg/kg [2, 3]: 38 ± 3.7%; inhibition in vivo at 1 mg/kg [2, 4]: 40 ± 6.2%; inhibition in vivo at 1 mg/kg [2, 5]: 42 ± 6.1%; inhibition in vivo at 1 mg/kg [2, 6]: 23 ± 6%; inhibition in vivo at 2 mg/kg [2, 11]: 45 ± 4.8%; inhibition in vivo at 2 mg/kg [2, 12]: 41 ± 6.2%; inhibition in vivo at 2 mg/kg [2, 13]: 45 ± 7.2%; inhibition in vivo at 2 mg/kg ([2]; Rattus norvegicus, 2.0 mg/kg oral, SHR, read-out: Heart Rate (effect on reducing heart rate)): 21 ± 4%; inhibition in vivo at 5 mg/kg ([2]; Rattus norvegicus, 5 mg/kg oral, SHR, read-out: Heart Rate (effect on reducing heart rate)): 18 ± 5%; blood pressure reduction effect compared with Azilsartan medoxomil ([2]; SHR, result in words): obviously superior to that of the Azilsartan medoxomil positive drug; reduction effects on the heart rate of SHR rats ([2]; during the whole administration, result in words): significant reduction effects on the heart rate
4 | CCOc1nc2cccc(C(=O)OCc3no[n+]([O-])c3C(C)(C)C)c2n1Cc1ccc(-c2ccccc2-c2noc(=O)[nH]2)cc1 [QR01026] | -10 ± 5% | 24 ± 6.5% | 4.3 ± 5.1% | -3 ± 7% | -8 ± 6% | 16 ± 2.8% | -10 ± 6% | 31 ± 2.8% |  | 5.2 ± 3.2% | 3.8 ± 4.5% | -5 ± 8% | -4 ± 7% | 
5 | CCOc1nc2cccc(C(=O)OC(OC(=O)OCc3nc(C)c(C)nc3C)C(C)C)c2n1Cc1ccc(-c2ccccc2-c2noc(=O)[nH]2)cc1 (centres unmarked) [QR01027] | -5 ± 3% | 18 ± 2.9% | 4.8 ± 4.2% | 5% | -2 ± 3% | 14 ± 2% | -6 ± 4% | 23 ± 4.6% |  | 5.2 ± 3% | 2.8 ± 3.9% | -3 ± 4% | -3 ± 4% | 
6 | CCOc1nc2cccc(C(=O)OC(OC(=O)OCc3nc(C)c(C)nc3C)C(C)(C)C)c2n1Cc1ccc(-c2ccccc2-c2noc(=O)[nH]2)cc1 (centres unmarked) [QR01028] | -6 ± 4% | 18 ± 4.2% | 3.9 ± 5.2% | -3 ± 4% | -6 ± 2% | 15 ± 0.9% | -12 ± 5% | 25 ± 3.6% |  | 1.7 ± 5.3% | 2.5 ± 4.6% | -4 ± 3% | -2 ± 3% | 
7 | CCOc1nc2cccc(C(=O)OCOC(=O)OCc3ccno3)c2n1Cc1ccc(-c2ccccc2-c2noc(=O)[nH]2)cc1 [QR01030] | -20 ± 6% | 25 ± 3.6% | 5.2 ± 4.3% | 4% | -12 ± 6% | 18 ± 2% | -18 ± 7% | 30 ± 4.6% |  | 2.9 ± 3% | 3.7 ± 5.8% | -2 ± 4% | -3 ± 5% | 
8 | CCOc1nc2cccc(C(=O)OCOC(=O)OCc3cn(C)cn3)c2n1Cc1ccc(-c2ccccc2-c2noc(=O)[nH]2)cc1 [QR01031] | -18 ± 6% | 25 ± 5.7% | 4.5 ± 3.8% | -4 ± 3% | -11 ± 5% | 18 ± 3.5% | -17 ± 5% | 32 ± 2.6% |  | 2.9 ± 2.6% | 4.7 ± 3.1% | -5 ± 5% | -8 ± 4% | 
9 | CCOc1nc2cccc(C(=O)OCOC(=O)OCc3ccn(C)c3)c2n1Cc1ccc(-c2ccccc2-c2noc(=O)[nH]2)cc1 [QR01032] | -9 ± 4% | 28 ± 3.1% | 5.2 ± 2.7% | -5 ± 2% | -8 ± 6% | 20 ± 4.1% | -9 ± 5% | 35 ± 4.6% | close to that of Azilsartan medoxomil | 4.7 ± 3.1% | 4.8 ± 3.6% | -8 ± 6% | -3 ± 5% | 
10 | CCOc1nc2cccc(C(=O)OC(C)OC(=O)OCc3ccn(C)c3)c2n1Cc1ccc(-c2ccccc2-c2noc(=O)[nH]2)cc1 (centres unmarked) [QR01033] | -15 ± 6% | 26 ± 3.7% | 6.4 ± 2.9% | -5 ± 3% | -8 ± 2% | 19 ± 2.1% | -19 ± 7% | 32 ± 4% |  | 2.3 ± 3.2% | 4.2 ± 5% | -3 ± 4% | -1 ± 7% | 
11 | CCOc1nc2cccc(C(=O)OC3CCc4c3no[n+]4[O-])c2n1Cc1ccc(-c2ccccc2-c2noc(=O)[nH]2)cc1 (centres unmarked) [QR01035] | -23 ± 6% | 28 ± 4.5% | 3.4 ± 2.5% | -3 ± 3% | -14 ± 6% | 20 ± 3.1% | -26 ± 5% | 36 ± 4.6% | close to that of Azilsartan medoxomil | 6.4 ± 2.1% | 6.1 ± 3.8% | -4 ± 3% | 6% | 

From US9708306B2, “Benzimidazole derivatives and preparation process and pharmaceutical uses thereof” (WUHAN LL SCIENCE AND TECHNOLOGY DEVELOPMENT CO., LTD, priority 2015, dated 2017)
